The supplement of paper PMC10307832

Experiments:
Test in all cases: relative viability (nuclei count vs DMSO), 5 days (fraction); higher = more cells survive
NCI-H596 = system: NCI-H596
How it was run: (§1)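 Lung cancer cell lines, seeded in 1536-well plates, were treated the following day by pin tool with a single drug or with five library-drug doses (not always all listed) in √10 steps on top of a fixed anchor-drug dose. Cells were fixed and nuclei stained in one step after 5 days, and nuclei were counted. Relative viability is the nuclei count for treated wells divided by that for vehicle wells, reported as medians of duplicate plates.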

NCI-H1666 = system: NCI-H1666
How it was run: as §1

NCI-H1703 = system: NCI-H1703
How it was run: as §1

NCI-H1944 = system: NCI-H1944
How it was run: as §1

PC-14 = system: PC-14
How it was run: as §1

NCI-H1648 = system: NCI-H1648
How it was run: as §1

NCI-H661 = system: NCI-H661
How it was run: as §1

A549 = system: A549
How it was run: as §1

SK-LU-1 = system: SK-LU-1
How it was run: as §1

SMILES	relative viability (NCI-H596; first compound 0.002 µM)	relative viability (NCI-H596; first compound 0.006325 µM)	relative viability (NCI-H596; first compound 0.02 µM)	relative viability (NCI-H596; first compound 0.06325 µM)	relative viability (NCI-H596; first compound 0.2 µM)	relative viability (NCI-H1666; first compound 0.002 µM)	relative viability (NCI-H1666; first compound 0.006325 µM)	relative viability (NCI-H1666; first compound 0.02 µM)	relative viability (NCI-H1666; first compound 0.06325 µM)	relative viability (NCI-H1666; first compound 0.2 µM)	relative viability (NCI-H1944; first compound 0.002 µM)	relative viability (NCI-H1944; first compound 0.006325 µM)	relative viability (NCI-H1944; first compound 0.02 µM)	relative viability (NCI-H1944; first compound 0.06325 µM)	relative viability (NCI-H1944; first compound 0.2 µM)	relative viability (PC-14; first compound 0.002 µM)	relative viability (PC-14; first compound 0.006325 µM)	relative viability (PC-14; first compound 0.02 µM)	relative viability (PC-14; first compound 0.06325 µM)	relative viability (PC-14; first compound 0.2 µM)	other results
CCNC(=O)c1noc(-c2cc(C(C)C)c(O)cc2O)c1-c1ccc(CN2CCOCC2)cc1 [Luminespib] + NC(=O)Nc1cc(-c2cccc(F)c2)sc1C(=O)N[C@H]1CCCNC1 [AZD7762] (partner 0.2 µM)	1.11	1.17	0.857	0.934	0.879	0.828	0.835	0.903	0.78	0.589	0.525	0.426	0.307	0.149	0.134	0.32	0.38	0.179	0.102	0.0933	relative viability (NCI-H1703; first compound 0.002 µM): 0.146; relative viability (NCI-H1703; first compound 0.006325 µM): 0.114; relative viability (NCI-H1703; first compound 0.02 µM): 0.149; relative viability (NCI-H1703; first compound 0.06325 µM): 0.115; relative viability (NCI-H1703; first compound 0.2 µM): 0.114; relative viability (NCI-H1648; first compound 0.002 µM): 0.529; relative viability (NCI-H1648; first compound 0.006325 µM): 0.603; relative viability (NCI-H1648; first compound 0.02 µM): 0.875; relative viability (NCI-H1648; first compound 0.06325 µM): 0.702; relative viability (NCI-H1648; first compound 0.2 µM): 0.286
CCNC(=O)c1noc(-c2cc(C(C)C)c(O)cc2O)c1-c1ccc(CN2CCOCC2)cc1 [Luminespib] + Nc1ncn([C@H]2C[C@H](O)[C@@H](CO)O2)c(=O)n1 [Decitabine] (partner 2 µM)	1.07	0.887	0.88	0.991	1.01	0.701	0.676	0.715	0.71	0.544	0.493	0.454	0.405	0.405	0.415	0.23	0.21	0.123	0.076	0.0786	relative viability (NCI-H661; first compound 0.002 µM): 0.554; relative viability (NCI-H661; first compound 0.006325 µM): 0.544; relative viability (NCI-H661; first compound 0.02 µM): 0.454; relative viability (NCI-H661; first compound 0.06325 µM): 0.315; relative viability (NCI-H661; first compound 0.2 µM): 0.309; relative viability (A549; first compound 0.002 µM): 0.232; relative viability (A549; first compound 0.006325 µM): 0.297; relative viability (A549; first compound 0.02 µM): 0.191; relative viability (A549; first compound 0.06325 µM): 0.0306; relative viability (A549; first compound 0.2 µM): 0.0224; relative viability (SK-LU-1; first compound 0.002 µM): 0.725; relative viability (SK-LU-1; first compound 0.006325 µM): 0.462; relative viability (SK-LU-1; first compound 0.02 µM): 0.547; relative viability (SK-LU-1; first compound 0.06325 µM): 0.198; relative viability (SK-LU-1; first compound 0.2 µM): 0.216; relative viability (NCI-H1648; first compound 0.002 µM): 0.534; relative viability (NCI-H1648; first compound 0.006325 µM): 0.569; relative viability (NCI-H1648; first compound 0.02 µM): 0.458; relative viability (NCI-H1648; first compound 0.06325 µM): 0.489; relative viability (NCI-H1648; first compound 0.2 µM): 0.301
